From patent publication US20210386823A1, “THERAPEUTIC AGENT FOR CARTILAGE DISORDER” (OSAKA UNIVERSITY, priority 2018, published 2021)

System: cartilage defect model mice (knee joint articular cartilage defect)
Assay: Efficacy of HMGB1 fragment peptide on articular cartilage defect in cartilage defect model mouse
Assay type: in vivo, C57BL/6J mice
Method: C57BL/6J mice (6-7 weeks old, male, wild type) were purchased from CLEA Japan, Inc., and then acclimated to animal facilities until they were 8 weeks old (weighing approximately 25 g at 8 weeks old). While the mice were under 1.5-2.0% (v/v) isoflurane inhalation anesthesia, shaving was performed on the lower extremity of the side to create a cartilage defect, and a longitudinal skin incision of approximately 1 cm was applied with scissors to the middle of the knee joint. An articular dissection of approximately 1 cm was performed under the microscope with a sharp blade (#11) in the parapatellar medial approach to dislocate the patella laterally. The femoral pulley was confirmed, and a 0.5×0.5×0.5 mm cartilage defect was created at the center of the pulley using a 0.5 mm diameter hand-turned drill (manufactured by MEISINGER USA, L.L.C.). Inside of the joint was washed with saline, then the articular capsule was continuously sutured with 8-0 vicryl to prevent patellar dislocation, and the skin was sutured with 5-0 nylon thread.
Cartilage defect model mice created as described above were divided into an HMGB1 peptide (1-44) administration group (n=16) and a control group (n=16). To the HMGB1 peptide (1-44) administration group, a solution of HMGB1 peptide (1-44) adjusted to a concentration of 1 μg/μL with saline as solvent was administered from the tail vein in an amount of 100 μL/mouse (4 mg/kg as the dose of peptide) immediately after the cartilage defect was created, and thereafter, the same dose was administered twice a week until 4 weeks after the cartilage defect was created (hereinafter also referred to simply as “post-operative”). To the control group, saline was administered from the tail vein in an amount of 100 μL to each mouse on the same schedule as in the HMGB1 peptide (1-44) administration group.
In both the HMGB1 peptide (1-44) administration group and the control group, four mice were sacrificed at each time point of 2, 4, 8 and 12 weeks post-operative, and the cartilage defect creation sites of knee joints were removed for microscopic observation and tissue staining. For microscopic observation, the status of cartilage tissue was evaluated by scoring the gross appearance according to the criteria shown in Table 1 below using the Wayne scoring system. In addition, sections of cartilage tissue were created for histological evaluation and subjected to safranin O staining, and the status of cartilage tissue was evaluated by calculating the Wakitani score from the tissue images according to the criteria shown in Table 2 below.

For “HMGB1 peptide (1-44): Peptide consisting of amino acid residues 1-44 (SEQ ID NO: 1) of human-derived HMGB1 protein, chemically synthesized by a solid-phase method (MGKGDPKKPRGKMSSYAFFVQTCREEHKKKHPDASVNFSEFSKK)”, the “Microscopic observation (gross appearance) of cartilage defect sites of knee joints” value (4 mg/kg tail vein, twice a week until 4 weeks post-operative, observed at 2, 4, 8 and 12 weeks post-operative, vs control group (saline)) was “recovered to a state closer to normal than those of the control group”, the “Safranin O staining of cartilage tissue sections (regeneration of defective cartilage tissue)” value (4 mg/kg tail vein, twice a week until 4 weeks, 2, 4, 8 and 12 weeks post-operative, FIGS. 3 and 5) was “defective cartilage tissue was fully regenerated” and the “Wayne score (gross appearance)” value (4 mg/kg tail vein, twice a week until 4 weeks, 2, 4, 8 and 12 weeks post-operative, vs control group, FIG. 2) was “higher than the control group”. For the same substance, the “Wakitani score (histological evaluation)” value (4 mg/kg tail vein, twice a week until 4 weeks, 2, 4, 8 and 12 weeks post-operative, vs control group, FIGS. 4 and 6) was “significantly lower compared to that of the control group” and the “Safranin O staining response of knee joint cartilage tissues compared with normal mice” value (12 weeks post-operative, compared with cartilage of normal mice (FIG. 8, left)) was “strong positive response similar to cartilage tissues of knee joints of normal mice”.
